Laboratory results as given in patent publication US7442380B2, “Treatment of diseases caused by viral infection” (Apodemus AB, priority 2003, dated 2008).

Key:
Ljungan virus = Ljungan virus in tissue culture of Vero cells with Pleconaril (CPE); format: cell-based
Description: (§1) Ljungan virus was first tested in tissue culture of Vero cells in combination with Pleconaril. 1,6 micrograms of active substance per ml of the tissue culture medium were used. This dose was used in all experiment below where it says “with Pleconaril”.
10 000 000 tissue culture infectious doses (TCID) of Ljungan virus treated with Pleconaril give full cytopathogenic effect (CPE) in 4 days while the control culture with no Pleconaril show full CPE in 3 days.
(§2) For a control picornavirus known not to be sensitive to Pleconaril no inhibition of any amount of the virus can be detected. […] This means that Ljungan virus is semi-sensitive” or “semi-resistant” to Pleconaril.

Ljungan virus (LV145 SL) = experiment: Antiviral therapy of diabetes in male offspring of Ljungan virus infected laboratory mice; format: in vivo, CD1 mice; conditions: for frequency of animals with diabetes, as measured by GTT: vs infected untreated mice
Description: Glucose tolerance test was performed to determine the diagnosis of diabetes. In this test 2 g glucose per kg body weight was administrated intraperitoneally (as 100 mg glucose/ml solution). Blood glucose was measured (Medisence Precision PCx Abbott Laboratories) just before the glucose injection and at 60 and 120 minutes post administration. Diabetes was defined as a blood glucose level above 200 mg/dL in a glucose tolerance test at 120 min.
Abdominal fat in male mice was measured by dissecting out the bilateral scrotal fat cushion. The total weight of both fat cushions was used.
The serum insulin level was measured using a rat insulin high range ELISA kit (Mercodia AB, Uppsala, Sweden) according to the instructions of the manufacturer. Islets prepared from the pancreas were assayed for insulin release and glucose oxidation assay described elsewhere (Blixt, M., Niklasson, B. & Sandler, S. Characterization of β-cell function of pancreatic islets isolated from bank voles developing glucose intolerance/diabetes: an animal model showing features of both type 1 and type 2 diabetes mellitus. Manuscript submitted).
Pregnant outbred CD1 mice (CD-1 (ICR) Br Charles River laboratories, Germany) were infected intraperitoneally with 1000 ID50 units of LV145 SL two days after conception. Control animals were given an injection with the same volume with normal saline at the same time. All female mice were kept in individual cages and followed for the development of gestational diabetes, pregnancy outcome and development of diabetes in the offspring. In half of the infected pregnant mice, mild stress was induced by adding glucose (100 g/liter) to drinking water, performing weekly weights and glucose tolerance testing during the last week of pregnancy. The uninfected control group of pregnant mice was also subjected to stress. Antiviral therapy using LV-specific murine antisera or the oral antiviral compound Pleconaril (200 mg per kg body weight) administrated once a day for 4 consecutive days or a combination of antiserum and Pleconaril was initiated at 5 weeks of age (11-13). At 15 weeks animals were tested by a glucose tolerance test (GTT). Also, serum insulin level and abdominal fat were measured and the histopathology of the pancreas was examined.
Antiviral therapy using LV-specific murine antisera (group IV) or the oral antiviral compound Pleconaril (200 mg per kg body weight) administrated once a day for 4 consecutive days (group III) or a combination of antiserum and Pleconaril (group V) was initiated at 5 weeks of age.
Mice were treated with a combination of Pleconaril and antisera and interferon α. Interferon a was given as 2×10^7 IU/kg/day during three consecutive days during the same week Pleconaril and specific immunoglobulin was administrated. […] In addition, the combination therapy (Pleconaril, antisera, and interferon) normalize the amount of abdominal fat and the level of serum insulin, reducing them to normal levels.

[1] = system: arctic fox with severe encephalitis (Ljungan virus); experiment: Encephalitis in arctic fox treated with Pleconaril; format: in vivo; conditions: one arctic fox, 50 mg/kg twice daily for 7 days
Description: The arctic fox in Sweden is a species close to being extinct. The reason for this is unknown. Nordens Ark has a breeding program for arctic foxes with the aim to save the species. However, several animals in captivity have developed encephalitis and died. Nordens Ark has lost almost all their animals. The encephalitis is a slow progressing disease often starting with stereotypic behaviour followed by visual problem, loss of smell and loss of muscle coordination. The condition is slowly progressing over several months leading to the deaths of the animal. No spontaneous recovery has been seen in any of the arctic foxes observed.
Ljungan virus was isolated from the brain of one arctic fox suffering from encephalitis. Ljungan virus RNA was also detected by PCR in the brain and the heart of the same individual. Ljungan virus could also be detected in the brain and the heart by immunohistochemistry.
One arctic fox with severe encephalitis was treated with 50 mg/kg of Pleconaril twice daily for 7 days.

[2] = system: picornavirus known to be sensitive to Pleconaril; experiment: Tissue culture with Pleconaril, picornavirus known to be sensitive; format: cell-based; conditions: 10 000 000 TCID, 1,6 micrograms Pleconaril per ml
Description: as §1, §2

Bank voles with diabetes = experiment: Diabetic bank voles, oral Pleconaril, glucose tolerance test; format: in vivo; conditions: 100 mg/kg per day for seven days orally in drinking water; GTT 60 min, day before treatment vs 15 days later; none of six control animals
Description: Bank voles with diabetes were randomised into 2 groups one treated with Pleconaril and one not receiving any treatment. Treated animals were given 100 mg Pleconaril per kg body weight per day seven days. The drug was administered orally in the drinking water. All animals were subjected to a glucose tolerance test the day before the treatment and again 15 days later. Glucose tolerance test was performed by administrating 2 grams of glucose per kg BW intraperitoneally. The blood glucose levels were measured after 60 min.

[3] = system: control picornavirus known not to be sensitive to Pleconaril; experiment: Tissue culture with Pleconaril, control picornavirus known not to be sensitive; format: cell-based; conditions: any amount of the virus, 1,6 micrograms Pleconaril per ml
Description: as §1, §2

Cc1cc(CCCOc2c(C)cc(-c3noc(C(F)(F)F)n3)cc2C)on1 [Pleconaril, 3-[3,5-dimethyl-4-[[3-(3-methyl-5-isoxazolyl)propyl]oxy]phenyl]-5-(trifluoromethyl)-1,2,4-oxadiazole]
time to full cytopathogenic effect (CPE) (Ljungan virus; 10 000 000 TCID of Ljungan virus, Vero cells, 1,6 micrograms Pleconaril per ml, control culture without Pleconaril full CPE in 3 days): 4 days
inhibition of Ljungan virus (Ljungan virus; 100 TCID of Ljungan virus, Vero cells, 1,6 micrograms Pleconaril per ml): fully inhibited
sensitivity of Ljungan virus to Pleconaril (conclusion) (Ljungan virus; Vero cells, 1,6 micrograms per ml): semi-sensitive
No. with blood glucose > 200 md/dL at 120 min (Ljungan virus (LV145 SL); Table 2, GTT at 15 weeks, therapy started at 5 weeks, number of mice, infected no treatment 8 of 11): 1
No. with blood glucose > 200 md/dL at 120 min (percent) (Ljungan virus (LV145 SL); Table 2, GTT at 15 weeks, infected no treatment 73%): 9%
Blood glucose at 60 min (Ljungan virus (LV145 SL); Table 2, GTT at 15 weeks, infected no treatment 242): 211
Serum insulin (Ljungan virus (LV145 SL); Table 2, at 15 weeks, infected no treatment 5.04): 4.15 µg/L
Abdominal fat in gram (Ljungan virus (LV145 SL); Table 2, male mice at 15 weeks, infected no treatment 2.9): 2.1 gram
No. Hyperglycemic (Ljungan virus (LV145 SL); Table 7, infected mice, number of mice, no treatment 8 of 11): 1
No. Hyperglycemic (percent) (Ljungan virus (LV145 SL); Table 7, infected mice, no treatment 73%): 9%
Abdominal fat (Ljungan virus (LV145 SL); Table 7, infected mice, spread in brackets, no treatment 2.90 (0.84)): 2.20 (1.0) g
Serum insulin (Ljungan virus (LV145 SL); Table 7, infected mice, spread in brackets, no treatment 5.04 (2.30)): 4.15 (5.03) μg/L
Blood glucose @ 60 minutes (Ljungan virus (LV145 SL); Table 7, infected mice, spread in brackets, no treatment 242 (75)): 211 (79) mg/dL
frequency of animals with diabetes, as measured by GTT (Ljungan virus (LV145 SL)): reduced the frequency of animals with diabetes
frequency of animals with diabetes, as measured by GTT (Ljungan virus (LV145 SL); listed as Pleconaril alone): reduced the frequency of diabetes
clinical condition after the treatment [1]: improved
course after several months [1]: signs and symptoms of encephalitis came back
inhibition of sensitive picornavirus (CPE) [2]: inhibited (no CPE)
animals improved with blood glucose levels decreasing more than 200 mg per dl (Bank voles with diabetes): 2 out of six
inhibition of control picornavirus [3]: no inhibition
